# Several values for one entry are separate records, joined by “and”; a condition that tells them apart may be missing. Equal values may be shown once.
# Tests used:
# Type in all cases: cell-based, mouse
# [1] = system: NO release from LPS-stimulated BV2 cells; assay: NO release inhibition in LPS-stimulated BV2 cells (Griess method); conditions: for Nitrite (NO release amount): BV2 cells induced by LPS, Griess test; for Nitrite (NO release amount) / inhibition at 20 µM: compound at 20 μM; for IC50 / inhibition at 20 µM: Mus musculus, BV-2, LPS-stimulated BV2 cells; for IC50: 24 h; for inhibition at 20 µM: read-out: NO inhibition rate
# Procedure: BV2 cells stimulated by lipopolysaccharide (LPS) lead to an increase in NO release. Therefore, we used the inhibitory ability of the target compounds on NO as a preliminary method to evaluate their anti-neuroinflammatory properties. We evaluated the inhibitory ability of isatin–chalcone hybrid derivatives 4a–t on the release of NO from BV2 cells at 20 μM. The release amount of NO was detected by the Griess method, and the actual release amount of NO was calculated based on the experimental data.
# BV2 cells were plated in 96-well microplates at 40,000 cells per well (100 μL/well) and incubated for 24 h. Then, 50 μL of LPS solution with a final concentration of 100 ng/mL and 50 μL of compounds (diluted with medium to a final concentration of 0.31–20 μM) were added, and each concentration had 3 parallel wells. The NO assay kit was used to carry out nitrite assays after 24 h. The 50 μL of culture medium was mixed with the GrisR1 (50 μL) and GrisR2 (50 μL) of the NO assay kit in another new 96-well plate. The absorbance was detected at 540 nm. The percentage of inhibition of NO was obtained from the following formula: [(Rlps − RB − RC)/(Rlps − RB)] × 100, where Rlps is the release amount of only the LPS-treated group, RB is the release amount of the normal control and RC is the release amount of the test compound and LPS-treated group. The IC50 values of test compounds were calculated by linear regression plots.
# TNF-α = assay: ELISA of TNF-α released by LPS-stimulated BV2 cells; conditions: result in words
# Procedure: (§1) BV2 cells were plated in 96-well microplates at 40,000 cells per well (100 μL/well) and incubated for 24 h. Then, 50 μL of LPS solution with a final concentration of 100 ng/mL and 50 μL of compounds (diluted with medium to a final concentration of 0.75–40 μM) were added, and each concentration had 3 parallel wells. The supernatant was collected after 24 h. Then, according to the manufacturer’s instructions, the ELISA assay kit was used to measure the concentrations of IL-6 and TNF-α. The absorbance was detected at 450 nm.
# BV2 microglial cells = assay: Cell viability assay (MTS) on BV2 cells; conditions: for IC50: Mus musculus, BV-2, MTS; for IC50 / cell viability: 24 h; for cell viability: compound at 25 μM, MTS
# Procedure: (§2) BV2 microglial cells (SCSP-5208, Cell Bank, Chinese Academy of Sciences, Shanghai, China) were incubated in high-glucose DMEM supplemented with 10% fetal bovine serum and 1% penicillin and streptomycin in a humidified atmosphere of 5% CO2 at 37 °C.
# (§3) BV2 cells were plated in 96-well microplates at 20,000 cells per well (100 μL/well) and incubated for 24 h. Then, 100 μL of compounds (diluted with medium to a final concentration of 1.56–100 μM) was added, and each concentration had 3 parallel wells. After 24 h, the cell viability was measured by MTS assay. The absorbance was detected at 490 nm. The percentage of viability was obtained from the following formula: ODdrug-treated/ODnormal cells × 100. The IC50 values of test compounds were calculated by linear regression plots.
# IL-6 = assay: ELISA of IL-6 released by LPS-stimulated BV2 cells; conditions: result in words
# Procedure: as §1
# [2] = Cell viability assay (MTS) on BV2 cells; conditions: mouse, BV2 microglial cells, MTS
# Procedure: as §2, §3
structure (smiles),measurement,setting,value
"CCOC(=O)CN1C(=O)/C(=C/C(=O)c2ccc(OCC)cc2)c2ccccc21 [Compound 4i, Ethyl (E)-2-(3-(2-(4-ethoxyphenyl)-2-oxoethylidene)-2-oxoindolin-1-yl)acetate]",Nitrite (NO release amount),[1],15.3 ± 0.3 µM
"CCOC(=O)CN1C(=O)/C(=C/C(=O)c2cc(OC)c(OC)c(OC)c2)c2cc(C)ccc21 [Compound 9e, Ethyl (E)-2-(5-methyl-2-oxo-3-(2-oxo-2-(3,4,5-trimethoxyphenyl)ethylidene)indolin-1-yl)acetate]",effect on production of TNF-α,TNF-α,relatively weaker inhibitory effects
same,IC50,[1],10.3 µM
same,inhibition at 20 µM,[1],72%
same,IC50,BV2 microglial cells,80.6 µM
same,effect on production of IL-6,IL-6,relatively weaker inhibitory effects
"CCCCCCCOC(=O)CN1C(=O)/C(=C/C(=O)c2cc(OC)c(OC)c(OC)c2)c2ccccc21 [Compound 5b, Heptyl (E)-2-(2-oxo-3-(2-oxo-2-(3,4,5-trimethoxyphenyl)ethylidene)indolin-1-yl)acetate]",IC50,[1],15.8 µM
same,IC50,BV2 microglial cells,45.3 µM
"O=C1Nc2ccccc2C1=O [Isatin, 1H-indole-2,3-dione]",Nitrite (NO release amount),[1],20.8 ± 0.9 µM
"CCOC(=O)CN1C(=O)/C(=C/C(=O)c2ccc(OC)cc2)c2ccccc21 [Compound 4h, Ethyl (E)-2-(3-(2-(4-methoxyphenyl)-2-oxoethylidene)-2-oxoindolin-1-yl)acetate]",Nitrite (NO release amount),[1],20.6 ± 0.6 µM
"CCOC(=O)CN1C(=O)/C(=C/C(=O)c2ccc(C(C)C)cc2)c2ccccc21 [Compound 4f, Ethyl (E)-2-(3-(2-(4-isopropylphenyl)-2-oxoethylidene)-2-oxoindolin-1-yl)acetate]",Nitrite (NO release amount),[1],17.1 ± 0.3 µM
same,cell viability,BV2 microglial cells,nearly non-cytotoxic
"CCOC(=O)CN1C(=O)/C(=C/C(=O)c2ccc(C)cc2)c2ccccc21 [Compound 4d, Ethyl (E)-2-(2-oxo-3-(2-oxo-2-(p-tolyl)ethylidene)indolin-1-yl)acetate]",Nitrite (NO release amount),[1],12.5 ± 0.2 µM
"COC(=O)CN1C(=O)/C(=C/C(=O)c2cc(OC)c(OC)c(OC)c2)c2ccccc21 [Compound 5a, Methyl (E)-2-(2-oxo-3-(2-oxo-2-(3,4,5-trimethoxyphenyl)ethylidene)indolin-1-yl)acetate]",IC50,[1],10.9 µM
same,IC50,BV2 microglial cells,78.6 µM
"CCCCCc1ccc(C(=O)/C=C2/C(=O)N(CC(=O)OCC)c3ccccc32)cc1 [Compound 4g, Ethyl (E)-2-(2-oxo-3-(2-oxo-2-(4-pentylphenyl)ethylidene)indolin-1-yl)acetate]",Nitrite (NO release amount),[1],8.5 ± 0.1 µM
same,IC50,[1],10.8 µM
same,inhibition at 20 µM,[1],73%
same,IC50,BV2 microglial cells,30.1 µM
same,cytotoxicity,BV2 microglial cells; under the concentration of 12.5 μM,did not show obvious cytotoxicity
same,"viability at 24 h, 3.1 µM","[2]; compound at 3.1 μM, read-out: cell viability (cell survival rate)",98.4%
same,"viability at 24 h, 6.3 μM","[2]; compound at 6.3 μM (printed 6.23 μM for 4b), read-out: cell viability (cell survival rate)",95.1%
same,"viability at 24 h, 12.5 µM",[2]; compound at 12.5 μM,83.9%
same,"viability at 24 h, 25 µM","[2]; compound at 25 μM, 24 h",42%
"CCOC(=O)CN1C(=O)/C(=C/C(=O)c2ccc(-c3ccccc3)cc2)c2ccccc21 [Compound 4o, Ethyl (E)-2-(3-(2-([1,1′-biphenyl]-4-yl)-2-oxoethylidene)-2-oxoindolin-1-yl)acetate]",Nitrite (NO release amount),[1],19.0 ± 0.4 µM
same,cell viability,BV2 microglial cells,nearly non-cytotoxic
"CCOC(=O)CN1C(=O)/C(=C/C(=O)c2cc(OC)c(OC)c(OC)c2)c2cc(I)ccc21 [Compound 9d, Ethyl (E)-2-(5-iodo-2-oxo-3-(2-oxo-2-(3,4,5-trimethoxyphenyl)ethylidene)indolin-1-yl)acetate]",inhibition at 20 µM,[1],22%
"CCOC(=O)CN1C(=O)/C(=C/C(=O)c2cc(OC)c(OC)c(OC)c2)c2cc(OC)ccc21 [Compound 9f, Ethyl (E)-2-(5-methoxy-2-oxo-3-(2-oxo-2-(3,4,5-trimethoxyphenyl)ethylidene)indolin-1-yl)acetate]",IC50,[1],10.4 µM
same,inhibition at 20 µM,[1],68%
same,IC50,BV2 microglial cells,78.1 µM
"COc1cc(C(=O)/C=C2/C(=O)N(CC(=O)OCCc3ccccc3)c3ccccc32)cc(OC)c1OC [Compound 5f, Phenethyl (E)-2-(2-oxo-3-(2-oxo-2-(3,4,5-trimethoxyphenyl)ethylidene)indolin-1-yl)acetate]",IC50,[1],10.7 µM
same,IC50,BV2 microglial cells,42.7 µM
"CCOC(=O)CN1C(=O)/C(=C/C(=O)c2ccco2)c2ccccc21 [Compound 4q, Ethyl (E)-2-(3-(2-(furan-2-yl)-2-oxoethylidene)-2-oxoindolin-1-yl)acetate]",Nitrite (NO release amount),[1],20.2 ± 0.4 µM
same,inhibition at 20 µM,[1],30%
same,cell viability,BV2 microglial cells,nearly non-cytotoxic
"CCOC(=O)CN1C(=O)/C(=C/C(C)=O)c2ccccc21 [Compound 4a, Ethyl (E)-2-(2-oxo-3-(2-oxopropylidene)indolin-1-yl)acetate]",Nitrite (NO release amount),[1],22.9 µM and 22.9 ± 0.5 µM
"CCOC(=O)CN1C(=O)/C(=C/C(=O)c2ccc[nH]2)c2ccccc21 [Compound 4r, Ethyl (E)-2-(2-oxo-3-(2-oxo-2-(1H-pyrrol-2-yl)ethylidene)indolin-1-yl)acetate]",Nitrite (NO release amount),[1],20.5 ± 0.6 µM
same,inhibition at 20 µM,[1],28%
"CCOC(=O)CN1C(=O)/C(=C/C(=O)c2ccc(CC)cc2)c2ccccc21 [Compound 4e, Ethyl (E)-2-(3-(2-(4-ethylphenyl)-2-oxoethylidene)-2-oxoindolin-1-yl)acetate]",Nitrite (NO release amount),[1],15.2 ± 0.3 µM
"CCOC(=O)CN1C(=O)/C(=C/C(=O)c2ccc(F)cc2)c2ccccc21 [Compound 4k, Ethyl (E)-2-(3-(2-(4-fluorophenyl)-2-oxoethylidene)-2-oxoindolin-1-yl)acetate]",Nitrite (NO release amount),[1],15.2 ± 0.2 µM
"CCOC(=O)CN1C(=O)/C(=C/C(=O)c2ccccc2)c2ccccc21 [Compound 4c, Ethyl (E)-2-(2-oxo-3-(2-oxo-2-phenylethylidene)indolin-1-yl)acetate]",Nitrite (NO release amount),[1],19.3 ± 0.5 µM
"CCOC(=O)CN1C(=O)/C(=C/C(=O)c2ccc(Cl)cc2)c2ccccc21 [Compound 4l, Ethyl (E)-2-(3-(2-(4-chlorophenyl)-2-oxoethylidene)-2-oxoindolin-1-yl)acetate]",Nitrite (NO release amount),[1],17.5 ± 0.3 µM
"CCCCCCCCCCCOC(=O)CN1C(=O)/C(=C/C(=O)c2cc(OC)c(OC)c(OC)c2)c2ccccc21 [Compound 5c, Undecyl (E)-2-(2-oxo-3-(2-oxo-2-(3,4,5-trimethoxyphenyl)ethylidene)indolin-1-yl)acetate]",IC50,[1],6.3 µM
same,IC50,BV2 microglial cells,19.8 µM
"CCOC(=O)CN1C(=O)/C(=C/C(=O)c2ccc([N+](=O)[O-])cc2)c2ccccc21 [Compound 4n, Ethyl (E)-2-(3-(2-(4-nitrophenyl)-2-oxoethylidene)-2-oxoindolin-1-yl)acetate]",Nitrite (NO release amount),[1],16.7 ± 0.3 µM
"CCOC(=O)CN1C(=O)/C(=C/C(=O)C2CC2)c2ccccc21 [Compound 4t, Ethyl (E)-2-(3-(2-cyclopropyl-2-oxoethylidene)-2-oxoindolin-1-yl)acetate]",Nitrite (NO release amount),[1],16.7 ± 0.2 µM
"CCOC(=O)CN1C(=O)/C(=C/C(=O)c2ccc3ccccc3c2)c2ccccc21 [Compound 4p, Ethyl (E)-2-(3-(2-(naphthalen-2-yl)-2-oxoethylidene)-2-oxoindolin-1-yl)acetate]",Nitrite (NO release amount),[1],17.0 ± 0.3 µM
"CCOC(=O)CN1C(=O)/C(=C/C(=O)c2ccc(Br)cc2)c2ccccc21 [Compound 4m, Ethyl (E)-2-(3-(2-(4-bromophenyl)-2-oxoethylidene)-2-oxoindolin-1-yl)acetate]",Nitrite (NO release amount),[1],18.6 ± 0.3 µM
"CCOC(=O)CN1C(=O)/C(=C/C(=O)c2ccccn2)c2ccccc21 [Compound 4s, Ethyl (E)-2-(2-oxo-3-(2-oxo-2-(pyridin-2-yl)ethylidene)indolin-1-yl)acetate]",Nitrite (NO release amount),[1],11.1 ± 0.4 µM
same,cell viability,BV2 microglial cells,nearly non-cytotoxic
